Several values for one entry are separate records, joined by “and”; a condition that tells them apart may be missing. Equal entries are not always repeated.
Legend:
[1] = test system: SKOV3 cells (wildtype, drug sensitive human ovarian cancer cell line); experiment: In-vitro cytotoxicity, MTS (formazan) assay, 6-day treatment; assay type: cell-based; settings: 6 days
Procedure: (§1) In in-vitro cytotoxicity studies, the wildtype (drug sensitive (DS)) human ovarian cancer cell line SKOV3 was maintained in culture alongside an SKOV3TR subculture that was selected for multi-drug resistance in the presence of increasing concentrations of PTX. For cytotoxicity studies, 96-well plates were prepared with each cell type seeded at 5000 cells/well. The DS and MDR cells were subjected to dose-response studies against PTX, CER and PTX combined with CER, delivered as free drugs in solution or delivered in PEO-PCL nanoparticles. All studies were performed alongside a negative control (cell growth medium), a positive control (polyethyleneimine, PEI), and proper vehicle controls. Since PTX is a cell-cycle dependant chemotherapeutic, all treatments were left to proceed undisturbed for 6 days, allowing ample time for all cells to enter mitosis. Resulting cell death/viability was measured by the MTS (formazan) assay.

[2] = test system: SKOV3TR cells (multi-drug resistant, PTX-selected subculture of SKOV3); experiment: cells; assay type: cell-based, human
Procedure: as §1

Row | Compound | percent cell viability ([1]; SKOV3, CER alone 10 μM in solution, p<0.05) [%] | percent cell viability ([2]; CER alone 20 μM in solution, 6 days) | viability at 0.001 µM ([1]; Homo sapiens, SK-OV-3, 144 h, SKOV3, 1 nM PTX in solution, read-out: percent cell viability (cells survived)) [%] | viability at 0.1 µM ([1]; Homo sapiens, SK-OV-3, 144 h, SKOV3, 100 nM PTX in solution, read-out: percent cell viability (cells survived)) [%] | IC50 ([1]; Homo sapiens, SK-OV-3, 144 h, SKOV3, free drug in solution, read-out: IC50 of drug sensitive (SKOV3) cells to PTX in solution) [nM] | percent of MDR cells survived ([2]; 10 nM PTX) [%] | percent cell viability ([2]; 1 μM PTX in solution, 6 days) [%] | viability at 0.1 µM ([2]; Homo sapiens, 144 h, 100 nM PTX in solution, 6 days, read-out: percent cell viability) [%] | viability at 1 µM ([2]; Homo sapiens, 144 h, 1 μM PTX in solution, 6 days, read-out: percent cell viability) [%]
1 | CCCCCCCCCCCCC/C=C/[C@@H](O)[C@H](CO)NC(=O)CCCCC [CER, C6-ceramide] | 75.08±7.86 | 91.18±7.61% and 91.2±7.6% | – | – | – | – | – | – | –
2 | CC(=O)O[C@H]1C(=O)[C@@]2(C)[C@H]([C@H](OC(=O)c3ccccc3)[C@]3(O)C[C@H](OC(=O)[C@H](O)[C@@H](NC(=O)c4ccccc4)c4ccccc4)C(C)=C1C3(C)C)[C@]1(OC(C)=O)CO[C@@H]1C[C@@H]2O [PTX, Paclitaxel] | – | – | 76 ± 5.92 | 16.4 ± 0.41 | ~5 | 100 | 65.6±2.2 | 100 ± 5.78 | 65.7 ± 2.16
